Values quoted from earlier work in paper PMC4791210 (International immunopharmacology, 2015).

Legend:
[1] = tested on: human neutrophils; details: result in words; cited from earlier work
[2] = tested on: fMLF-stimulated neutrophils; details: list of responses inhibited; ref per compound in References column of Table 1; cited from earlier work

Compound | fMLF-induced Responses Inhibited in Neutrophils [2] | further results
O=c1c(-c2ccccc2)coc2cc(O)ccc12 [7-hydroxyisoflavone] |  | Inhibition of fMLF-induced Ca2+ mobilization in human neutrophils [1]: none
COc1ccc(CCN(C)C(=O)/C=C/c2ccc(O)cc2)cc1 [Ailanthamide] | O2^−· production, HNE release | 
COc1cc2oc(=O)ccc2c2c1C=CC(C)(C)O2 [Alloxanthoxyletin] | O2^−· production, HNE release | 
CC(=O)OCC(Cc1ccccc1)NC(=O)C(Cc1ccccc1)NC(=O)c1ccccc1 (centres unmarked) [Aurantiamide acetate, aurantiamide acetate] | O2^−· production | 
COc1c2ccoc2cc2oc(=O)ccc12 [Bergapten] | O2^−· production, HNE release | 
C/C(=C/Cc1c(O)cc2oc(C)cc(=O)c2c1O)CO [Cnidimol A] | O2^−· production, HNE release | 
COc1c(O)ccc2c1cnc1c3cc4c(cc3ccc21)OCO4 [Decarine] | O2^−· production, HNE release | 
C=C(C)C(O)Cc1c(O)ccc2ccc(=O)oc12 (centres unmarked) [Demethylauraptenol] | O2^−· production, HNE release | 
C=C(C)[C@@H]1CC[C@]2(C(=O)O)CC[C@]3(C)[C@H](CC[C@@H]4[C@@]5(C)CC[C@@H](O)C(C)(C)[C@@H]5CC[C@]43C)[C@@H]12 [Epibetulinic acid] | O2^−· production | 
Cc1cc2ccc3c(c2cc1O)CCC(=O)C3(C)C [Flueggrene A] | O2^−· production, HNE release | 
C=C(C)[C@@H](CC=C(C)C)C[C@@]12C[C@@H](CC=C(C)C)C(C)(C)[C@]3(C=CC(C)(C)OC3=C(C(=O)c3ccccc3)C1=O)C2=O [Garcimultiflorone B] | O2^−· production, HNE release | 
COC(=O)C(C)CCC[C@]1(C)CC[C@]2(O1)C(=O)C(C)=C(C)[C@@]2(O)C(C)=O (some centres unmarked) [Hirsutocospiro A] | O2^−· production, HNE release | 
C=C1[C@H]2[C@@H]([C@@H](C(C)C)C[C@@H]1O)[C@H]1O[C@@H]2C[C@](C)(O)[C@@H](OC(=O)Cc2ccccc2)CC[C@@]1(C)OC(=O)CCC [Klymollin M] | O2^−· production, HNE release | 
CC1(C)CC[C@]2(C(=O)O)CC[C@]3(C)C(=CC[C@@H]4[C@@]5(C)CC[C@H](O)C(C)(C)[C@@H]5CC[C@]43C)[C@@H]2C1 [Oleanolic acid] | O2^−· production, HNE release | 
CC(C)=CCc1c(O)ccc2ccc(=O)oc12 [Osthenol] | O2^−· production, HNE release | 
COC1=CC(=O)c2cc(-c3ccc(OC)c(O)c3)c3cc(O)c(OC)cc3c2C1=O [Pterolinus K] | O2^−· production, HNE release | 
C=CCc1ccc(O)c(-c2cc(O)ccc2O)c1 [Randaiol] | O2^−· production and HNE release | 
C=C(CO)[C@@H]1CC[C@]2(C)CC[C@]3(C)[C@H](CC[C@@H]4[C@@](C)(CC(=O)O)[C@H](C(C)(C)C(=O)O)CC[C@]43C)[C@@H]12 [Triterpene 17, 30-hydroxy-2,3-seco-lup-20(29)-ene-2,3-dioic acid] | O2^−· production, HNE release | 
COc1cc(CCCc2c(OC)cc(O)c(OC)c2OC)ccc1O [Viscolin] |  | Inhibition of fMLF-induced Ca2+ flux in neutrophils [1]: did not inhibit
CC1(C)C=Cc2cc3ccc(=O)oc3cc2O1 [Xanthyletin] | O2^−· Production, HNE release | 
(+)-Episesamin | O2^−· production, HNE release | 
Aristolatams IIIa | O2^−· production, HNE release | 
Berryammone A | O2^−· production, HNE release | 
Berryammone B | O2^−· production, HNE release | 
Lawsochylin A | O2^−· production, HNE release | 
Lawsonaphthoate A | O2^−· production, HNE release | 
